Patent US12673944B2, “Compounds having inhibitory activity against glucosylceramide synthase or pharmaceutically acceptable salt thereof, processes for preparing the same, and pharmaceutical compositions comprising the same” (YUHAN CORPORATION, priority 2019, dated 2026)
pIC50: −log10 of the molar value.

Legend:
[1] = system: GM1 production in Jurkat cells; assay: cells; type: cell-based; conditions: Homo sapiens, Jurkat, 72 h
[2] = target: T1, glucosylceramide synthase (GCS) (Homo sapiens, UniProt Q16739); assay: GCS enzyme inhibition assay (A549 cell lysate, NBD C6-ceramide, HPLC fluorescence); type: biochemical; conditions: inhibitory activity against GCS, 37° C., 90 minutes
T1 construct: The obtained supernatant was used; host or cells: A549 cells (lysate supernatant after sonication)
T1 sequence (Q16739 1-394): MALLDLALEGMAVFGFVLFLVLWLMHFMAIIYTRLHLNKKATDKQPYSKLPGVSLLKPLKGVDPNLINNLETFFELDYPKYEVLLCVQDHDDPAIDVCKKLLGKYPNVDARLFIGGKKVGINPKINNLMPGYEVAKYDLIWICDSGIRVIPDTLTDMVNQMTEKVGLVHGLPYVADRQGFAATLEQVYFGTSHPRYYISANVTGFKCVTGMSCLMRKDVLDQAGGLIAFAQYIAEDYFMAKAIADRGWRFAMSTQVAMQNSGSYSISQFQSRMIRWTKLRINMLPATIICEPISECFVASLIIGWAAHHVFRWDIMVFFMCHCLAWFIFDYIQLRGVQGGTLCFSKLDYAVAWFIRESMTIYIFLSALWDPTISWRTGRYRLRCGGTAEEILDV
Experimental: Ibiglustat, known as a GCS inhibitor, was used as a control.
After the cells attached to the culture dish were washed with phosphate buffered saline (PBS), the cells were scraped off with a cell scraper and then centrifuged (4000 rpm, 3 min, 4° C.) to collect the cells in a 50 ml tube. The cell pellets were suspended in a lysis buffer (50 mM HEPES, pH 7.3, containing 1× the protease/phosphatase inhibitor cocktail), lysed by sonication, and then the lysate was centrifuged (13000 rpm, 10 min, 4° C.). The obtained supernatant was used for the quantitative analysis of proteins. The amount of proteins was measured using the BCA protein assay kit, using bovine serum albumin as a standard.
Enzymatic reactions were initiated by sequentially adding the following reaction materials to a 96 deep-well plate. Thereafter, the enzymatic reactions were performed at 37° C. for 90 minutes.
The enzymatic reactions were stopped by adding 100 μl of chloroform/methanol (2:1, v/v). After vortexing for 15 seconds, each mixture was centrifuged (4000 rpm, 10 min, 18° C.). The lower layer (50 μl) was transferred to a new 96 deep-well plate and dried with a reduced concentrator.
Data analysis was performed by the following equations. % Area(Sample)=Area(GlcCer)/[Area(Cer)+Area(GlcCer)]×100 % GCS activity=[Area(Sample)−Area(ibiglustat)]/[Area(DMSO)−Area(ibiglustat)]×100

Row | Structure (SMILES) | pIC50 [1] | pIC50 [2]
1 | O=C(NC1CCOc2cc(-c3cccc(S(=O)(=O)N4CCCC4)c3)ccc21)O[C@@H]1CN2CCC1CC2 (stereo partly drawn) [Example 60, (S)-quinuclidin-3-yl (7-(3-(pyrrolidin-1-ylsulfonyl)phenyl)chroman-4-yl)carbamate] | 7.78 | 8.62
2 | O=C(NC1CCOc2cc(-c3ccc4c(c3)COC4)ccc21)O[C@@H]1CN2CCC1CC2 (stereo partly drawn) [Example 61, (S)-quinuclidin-3-yl (7-(1,3-dihydroisobenzofuran-5-yl)chroman-4-yl)carbamate] | 7.40 | 8.87
3 | O=C(NC1CCOc2cc(-c3ccc4nsnc4c3)ccc21)O[C@@H]1CN2CCC1CC2 (stereo partly drawn) [Example 62, (S)-quinuclidin-3-yl (7-(benzo[c][1,2,5]thiadiazol-5-yl)chroman-4-yl)carbamate] | 7.67 | 8.99
4 | CN1CCOc2cc(-c3ccc4c(c3)OCCC4NC(=O)O[C@@H]3CN4CCC3CC4)ccc21 (stereo partly drawn) [Example 63, (S)-quinuclidin-3-yl (7-(4-methyl-3,4-dihydro-2H-benzo[b][1,4]oxazin-7-yl)chroman-4-yl)carbamate] | 7.57 | 8.88
5 | O=C(NC1CCOc2cc(-c3ccsc3)ccc21)O[C@@H]1CN2CCC1CC2 (stereo partly drawn) [Example 64, (S)-quinuclidin-3-yl (7-(thiophen-3-yl)chroman-4-yl)carbamate] | 7.72 | 8.88
6 | COc1ccc(Cl)c(-c2ccc3c(c2)OCCC3NC(=O)O[C@@H]2CN3CCC2CC3)c1 (stereo partly drawn) [Example 65, (S)-quinuclidin-3-yl (7-(2-chloro-5-methoxyphenyl)chroman-4-yl)carbamate] | 8.93 | 9.66
7 | COc1cc(-c2ccc3c(c2)OCCC3NC(=O)O[C@@H]2CN3CCC2CC3)ccc1Cl (stereo partly drawn) [Example 66, (S)-quinuclidin-3-yl (7-(4-chloro-3-methoxyphenyl)chroman-4-yl)carbamate] | 7.95 | 8.76
8 | COc1cccc(-c2ccc3c(c2)OCCC3NC(=O)O[C@@H]2CN3CCC2CC3)c1Cl (stereo partly drawn) [Example 67, (S)-quinuclidin-3-yl (7-(2-chloro-3-methoxyphenyl)chroman-4-yl)carbamate] | 7.95 | 9.03
9 | COc1cc(-c2ccc3c(c2)OCCC3NC(=O)O[C@@H]2CN3CCC2CC3)ccn1 (stereo partly drawn) [Example 68, (S)-quinuclidin-3-yl (7-(2-methoxypyridin-4-yl)chroman-4-yl)carbamate] | 7.55 | 8.44
10 | CN(C)c1cc(-c2ccc3c(c2)OCCC3NC(=O)O[C@@H]2CN3CCC2CC3)ccc1F (stereo partly drawn) [Example 69, (S)-quinuclidin-3-yl (7-(3-(dimethylamino)-4-fluorophenyl)chroman-4-yl)carbamate] | 8.05 | 8.72
11 | O=C(NC1CCOc2cc(-c3ccc4c(c3)CCCO4)ccc21)O[C@@H]1CN2CCC1CC2 (stereo partly drawn) [Example 70, (S)-quinuclidin-3-yl [6,7′-bichroman]-4′-ylcarbamate] | 8.24 | 9.23
12 | COc1ncc(-c2ccc3c(c2)OCCC3NC(=O)O[C@@H]2CN3CCC2CC3)cc1C(F)(F)F (stereo partly drawn) [Example 71, (S)-quinuclidin-3-yl (7-(6-methoxy-5-(trifluoromethyl)pyridin-3-yl)chroman-4-yl)carbamate] | 7.41 | 8.28
13 | O=C(NC1CCOc2cc(-c3cnn(Cc4ccccc4)c3)ccc21)O[C@@H]1CN2CCC1CC2 (stereo partly drawn) [Example 72, (S)-quinuclidin-3-yl (7-(1-benzyl-1H-pyrazol-4-yl)chroman-4-yl)carbamate] | 7.89 | 9.04
14 | O=C(NC1CCOc2cc(-c3ccc(C4CCOCC4)cc3)ccc21)O[C@@H]1CN2CCC1CC2 (stereo partly drawn) [Example 73, (S)-quinuclidin-3-yl (7-(4-(tetrahydro-2H-pyran-4-yl)phenyl)chroman-4-yl)carbamate] | 7.55 | 8.83
15 | CN1C(=O)COc2ccc(-c3ccc4c(c3)OCCC4NC(=O)O[C@@H]3CN4CCC3CC4)cc21 (stereo partly drawn) [Example 74, (S)-quinuclidin-3-yl (7-(4-methyl-3-oxo-3,4-dihydro-2H-benzo[b][1,4]oxazin-6-yl)chroman-4-yl)carbamate] | 7.35 | 8.30
16 | Cc1cc(-c2ccc3c(c2)OCCC3NC(=O)O[C@@H]2CN3CCC2CC3)ccc1N1CCOCC1 (stereo partly drawn) [Example 75, (S)-quinuclidin-3-yl (7-(3-methyl-4-morpholinophenyl)chroman-4-yl)carbamate] | 7.63 | 8.61
17 | O=C(NC1CCOc2cc(-c3ccc(N4CCOCC4)c(Cl)c3)ccc21)O[C@@H]1CN2CCC1CC2 (stereo partly drawn) [Example 76, (S)-quinuclidin-3-yl (7-(3-chloro-4-morpholinophenyl)chroman-4-yl)carbamate] | 7.53 | 8.71
18 | O=C(NC1CCOc2cc(-c3ccc(N4CCOCC4)c(F)c3)ccc21)O[C@@H]1CN2CCC1CC2 (stereo partly drawn) [Example 77, (S)-quinuclidin-3-yl (7-(3-fluoro-4-morpholinophenyl)chroman-4-yl)carbamate] | 7.54 | 8.48
19 | Cc1ccc(-c2ccc3c(c2)OCCC3NC(=O)O[C@@H]2CN3CCC2CC3)cc1C#N (stereo partly drawn) [Example 78, (S)-quinuclidin-3-yl (7-(3-cyano-4-methylphenyl)chroman-4-yl)carbamate] | 7.56 | 8.90
20 | COc1cncc(-c2ccc3c(c2)OCCC3NC(=O)O[C@@H]2CN3CCC2CC3)c1 (stereo partly drawn) [Example 79, (S)-quinuclidin-3-yl (7-(5-methoxypyridin-3-yl)chroman-4-yl)carbamate] | 7.48 | 8.59
21 | COc1ncc(-c2ccc3c(c2)OCCC3NC(=O)O[C@@H]2CN3CCC2CC3)cc1Cl (stereo partly drawn) [Example 80, (S)-quinuclidin-3-yl (7-(5-chloro-6-methoxypyridin-3-yl)chroman-4-yl)carbamate] | 7.35 | 8.24
22 | O=C(NC1CCOc2cc(-c3ccc(OCC4CC4)nc3)ccc21)O[C@@H]1CN2CCC1CC2 (stereo partly drawn) [Example 81, (S)-quinuclidin-3-yl (7-(6-(cyclopropylmethoxy)pyridin-3-yl)chroman-4-yl)carbamate] | 7.83 | 9.03
23 | CC(C)Oc1ccc(-c2ccc3c(c2)OCCC3NC(=O)O[C@@H]2CN3CCC2CC3)cc1Cl (stereo partly drawn) [Example 82, (S)-quinuclidin-3-yl (7-(3-chloro-4-isopropoxyphenyl)chroman-4-yl)carbamate] | 8.15 | 8.54
24 | COc1ccc(-c2ccc3c(c2)OCCC3NC(=O)O[C@@H]2CN3CCC2CC3)cc1C(F)(F)F (stereo partly drawn) [Example 83, (S)-quinuclidin-3-yl (7-(4-methoxy-3-(trifluoromethyl)phenyl)chroman-4-yl)carbamate] | 7.71 | 8.41
25 | COc1cccc(OC)c1-c1ccc2c(c1)OCCC2NC(=O)O[C@@H]1CN2CCC1CC2 (stereo partly drawn) [Example 84, (S)-quinuclidin-3-yl (7-(2,6-dimethoxyphenyl)chroman-4-yl)carbamate] | 8.14 | 8.55
26 | O=C(NC1CCOc2ccc(-c3ccc(F)cc3)cc21)O[C@@H]1CN2CCC1CC2 (stereo partly drawn) [Example 85, (S)-quinuclidin-3-yl (6-(4-fluorophenyl)chroman-4-yl)carbamate] | 6.65 | 8.01
27 | O=C(NC1CCOc2ccc(-c3cccc(F)c3)cc21)O[C@@H]1CN2CCC1CC2 (stereo partly drawn) [Example 86, (S)-quinuclidin-3-yl (6-(3-fluorophenyl)chroman-4-yl)carbamate] | 6.74 | 8.01
